Measurements published in patent US11878023B2, “Compositions and methods for delivering pharmaceutical agents” (Arizona Board of Regents on Behalf of the University of …, priority 2017, dated 2024).
Counter-ions that a name gives are not always drawn.

Experiments:
[1] = Laser diffraction particle size analysis; type: physicochemical; conditions: laser sizing, n = 3
Protocol: The laser diffraction particle size analysis was performed on raw Fas and all co-SD samples.

[2] = Residual water content by Karl Fischer titration (KFT); type: physicochemical
From the text: Using conditions similar to those previously reported (Li et al., 2014, supra; […], et al., European journal of pharmaceutical sciences: official journal of the European Federation for Pharmaceutical Sciences. Jul. 16, 2013; 49(4):699-711; […], et al., International journal of nanomedicine. 2013; 8:275-293), the residual water content of all SD powders were quantified analytically by Karl Fischer titration (KFT) coulometrically using a TitroLine 7500 trace titrator (SI Analytics, Germany). Approximately 2-10 mg of powder was added to the titration cell containing Hydranal® Coulomat AD reagent. The residual water content was measured at the end of titration.

**Q.** With `O=S(=O)(c1cccc2cnccc12)N1CCCNCC1` [Raw Fas, Fasudil monohydrochloride hemihydrate salt] as the molecule, how does the DV90 [1] read?
**A.** 7.42 ± 0.19 μm

**Q.** And the Dv10 [1]?
**A.** 3.67 ± 0.32 μm

**Q.** What about the Dv50 [1] of the same molecule?
**A.** about 5 μm

**Q.** And the “Span Value” [1]?
**A.** 0.765 ± 0.15

**Q.** What about the Dv50 ([1]; listed as Raw FH) of the same molecule?
**A.** 4.96 ± 3.5 μm

**Q.** What about the “Residual Water content” value ([2]; n = 3) of the same molecule?
**A.** 2.97 ± 0.06 % w/w

**Q.** What about the “Residual Water content” value ([2]; n = 3, listed as raw Fas) of the same molecule?
**A.** 2.97 % w/w
